Experiment [1] concerns SETVI. Put plainly: Post-emergence herbicidal action against SETVI. As to conditions: 80 g/ha, visual assessment about 3 weeks after treatment vs untreated controls. It counts as in vivo, Setaria viridis. A digest of the protocol:
(§1)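 Herbicidal action is rated visually in percent against untreated controls, where 100% means dead plants and 0% means no difference. Ratings come about 3 weeks after foliar spraying of one-leaf-stage plants with aqueous WP or EC preparations plus 0.2% wetting agent at 600 to 800 l/ha.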

The test system of experiment [2] is ECHCG. Put plainly: Pre-emergence herbicidal action against ECHCG. It counts as in vivo, Echinochloa crus-galli. As to conditions: 320 g/ha, scored visually after 3 weeks vs untreated controls. In a few lines: (§2)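 Weed and crop seeds sown in sandy loam, then WP or EC formulations sprayed onto covering soil pre-emergence as aqueous suspension or emulsion at 600 to 800 L/ha water with 0.2% wetting agent. Greenhouse-grown; visual damage scored after 3 weeks versus untreated controls, 0–100%.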

In experiment [3] the test system is AVEFA. Put plainly: Post-emergence herbicidal action against AVEFA. It counts as in vivo, Avena fatua. As to conditions: 80 g/ha, visual assessment after about 3 weeks. In a few lines: as §1
Experiment [4] concerns ALOMY. The experiment is described as follows: Pre-emergence herbicidal action against ALOMY. It counts as in vivo, Alopecurus myosuroides. The following applies: 320 g/ha, scored visually after 3 weeks vs untreated controls. A digest of the protocol:
as §2

Experiment [5] relates to VIOTR. The experiment is described as follows: Pre-emergence herbicidal action against VIOTR. The format is in vivo, Viola tricolor. The following applies: 320 g/ha. A digest of the protocol: as §2
Experiment [6] has as its system ECHCG. Put plainly: Post-emergence herbicidal action against ECHCG. The format is in vivo, Echinochloa crus-galli. As to conditions: 80 g/ha, visual assessment about 3 weeks after treatment vs untreated controls. A digest of the protocol: as §1
The subject of experiment [7] is DIGSA. The experiment is described as follows: Pre-emergence herbicidal action against DIGSA. The format is in vivo, Digitaria sanguinalis. As to conditions: 320 g/ha, scored visually after 3 weeks vs untreated controls. In a few lines: as §2
In experiment [8] the test system is LOLRI. Put plainly: Post-emergence herbicidal action against LOLRI. It counts as in vivo, Lolium rigidum. As to conditions: 80 g/ha, visual assessment about 3 weeks after treatment vs untreated controls. In a few lines: as §1
For experiment [9], the system named is MATIN. Put plainly: Pre-emergence herbicidal action against MATIN. The format is in vivo. As to conditions: 320 g/ha. The text has this: (§3) Seeds of monocotyledonous and dicotyledonous weed plants and crop plants are laid out in sandy loam soil in wood-fiber pots and covered with soil. The compounds of the invention, formulated in the form of wettable powders (WP) or as emulsion concentrates (EC), are then applied to the surface of the covering soil as aqueous suspension or emulsion at a water application rate equating to 600 to 800 L/ha with addition of 0.2% wetting agent.
(§4) After the treatment, the pots are placed in a greenhouse and kept under good growth conditions for the trial plants. The damage to the test plants is scored visually after a test period of 3 weeks by comparison with untreated controls (herbicidal activity in percent (%): 100% activity=the plants have died, 0% activity=like control plants).

Experiment [10] concerns SETVI. Put plainly: Pre-emergence herbicidal action against SETVI. The following applies: 320 g/ha, scored visually after 3 weeks vs untreated controls. It counts as in vivo, Setaria viridis. In a few lines:
as §2

The test system of experiment [11] is LOLRI. The experiment is described as follows: Pre-emergence herbicidal action against LOLRI (Table 8, titled post-emergence at 320 g/ha). It counts as in vivo, Lolium rigidum. The following applies: table stands in the pre-emergence section. A digest of the protocol: as §2
For experiment [12], the system named is ALOMY. Put plainly: Post-emergence herbicidal action against ALOMY. It counts as in vivo, Alopecurus myosuroides. The following applies: 80 g/ha, visual assessment after about 3 weeks. In a few lines:
as §1

Experiment [13] concerns AVEFA. Put plainly: Pre-emergence herbicidal action against AVEFA. The format is in vivo, Avena fatua. As to conditions: 320 g/ha, scored visually after 3 weeks vs untreated controls. A digest of the protocol: as §2
Experiment [14] relates to DIGSA. Put plainly: Post-emergence herbicidal action against DIGSA. The format is in vivo, Digitaria sanguinalis. The following applies: 80 g/ha, visual assessment about 3 weeks after treatment vs untreated controls. In a few lines:
as §1

Experiment [15] relates to AMARE. Put plainly: Pre-emergence herbicidal action against AMARE. It counts as in vivo, Amaranthus retroflexus. The following applies: 320 g/ha. A digest of the protocol:
as §2

Experiment [16] relates to VERPE. The experiment is described as follows: Pre-emergence herbicidal action against VERPE. The format is in vivo, Veronica persica. The following applies: 320 g/ha.
From the text: as §3, §4

Turning to `C#CCOCC1CCC2(C1)NC(=O)C(c1c(C)cc(C#CC)cc1OC)=C2OC(=O)OCC` (stereo not shown) [Example P-101], in experiment [1], the “Post-emergence action against SETVI in %” value was found to be 100%. In [2], the “Pre-emergence action against ECHCG in %” value worked out at 100%. In experiment [3], the “Post-emergence action against AVEFA in %” value is listed as 80%. Besides, the “Pre-emergence action against ALOMY in %” value in experiment [4] was found to be 100%. Also, the “Pre-emergence action against VIOTR in %” value in experiment [5] is reported as 80%. Further, in [6], the “Post-emergence action against ECHCG in %” value is 100%. Also, in experiment [7], the “Pre-emergence action against DIGSA in %” value is reported as 100%. The “Post-emergence action against LOLRI in %” value in [8] came to 100%. Besides, the “Pre-emergence action against MATIN in %” value in experiment [9] came to 80%. For the same compound, the “Pre-emergence action against SETVI in %” value in [10] was 100%. Further, the “Pre-emergence herbicidal action against LOLRI in %” value in [11] was 100%. Moreover, in experiment [12], the “Post-emergence action against ALOMY in %” value is on record as 100%. For the same compound, the “Pre-emergence action against AVEFA in %” value in experiment [13] is recorded as 100%. Also, in experiment [14], the “Post-emergence action against DIGSA in %” value is listed as 90%. In experiment [15], the “Pre-emergence action against AMARE in %” value turned out to be 100%.
Consider `C#CCOCC1CCC2(C1)NC(=O)C(c1c(C)cc(C#CC)cc1OC)=C2OC(=O)OCC` (stereo not shown) [Example P-103], for which the “Post-emergence action against SETVI in %” value in [1] was determined as 100%. Besides, in experiment [2], the “Pre-emergence action against ECHCG in %” value was found to be 100%. Also, in experiment [3], the “Post-emergence action against AVEFA in %” value is on record as 90%. The “Pre-emergence action against ALOMY in %” value in experiment [4] was 100%. Further, in [6], the “Post-emergence action against ECHCG in %” value was determined as 100%. For the same compound, the “Pre-emergence action against DIGSA in %” value in experiment [7] is 100%. In addition, the “Post-emergence action against LOLRI in %” value in experiment [8] stood at 90%. For the same compound, the “Pre-emergence action against MATIN in %” value in experiment [9] came to 90%. Besides, the “Pre-emergence action against SETVI in %” value in experiment [10] was 100%. In addition, the “Pre-emergence herbicidal action against LOLRI in %” value in experiment [11] was found to be 100%. The “Post-emergence action against ALOMY in %” value in experiment [12] turned out to be 100%. Also, the “Pre-emergence action against AVEFA in %” value in [13] is listed as 100%. For the same compound, the “Post-emergence action against DIGSA in %” value in experiment [14] stood at 100%. In addition, the “Pre-emergence action against VERPE in %” value in experiment [16] was determined as 90%. Also, the “Pre-emergence action against AMARE in %” value in experiment [15] was 100%.
For `CC#Cc1cc(Br)c(C2=C(OC(=O)OCC)C3(CCC(COCC)C3)NC2=O)c(OC)c1` (stereo not shown) [Example P-05], the “Post-emergence action against SETVI in %” value in experiment [1] worked out at 100%. The “Pre-emergence action against ECHCG in %” value in experiment [2] was determined as 100%. The “Pre-emergence action against ALOMY in %” value in experiment [4] turned out to be 100%. Moreover, the “Pre-emergence action against VIOTR in %” value in experiment [5] worked out at 100%. The “Post-emergence action against ECHCG in %” value in experiment [6] is on record as 100%. Besides, in experiment [7], the “Pre-emergence action against DIGSA in %” value was 100%. In addition, the “Post-emergence action against LOLRI in %” value in experiment [8] is 100%. Moreover, the “Pre-emergence action against MATIN in %” value in [9] worked out at 90%. Also, the “Pre-emergence action against SETVI in %” value in experiment [10] is recorded as 100%. Moreover, the “Pre-emergence herbicidal action against LOLRI in %” value in experiment [11] is 100%. Besides, the “Post-emergence action against ALOMY in %” value in experiment [12] worked out at 100%. For the same compound, the “Pre-emergence action against AVEFA in %” value in experiment [13] is recorded as 100%. Also, the “Post-emergence action against DIGSA in %” value in experiment [14] stood at 100%. In addition, in experiment [16], the “Pre-emergence action against VERPE in %” value amounted to 80%. Further, the “Pre-emergence action against AMARE in %” value in experiment [15] was 100%.
For `C#CCOCC1CCC2(C1)NC(=O)C(c1c(C)cc(C#CC)cc1Cl)=C2O` (stereo not shown) [Example I-78], the “Post-emergence action against SETVI in %” value in experiment [1] came to 100%. Also, the “Pre-emergence action against ECHCG in %” value in experiment [2] is reported as 100%. In addition, the “Post-emergence action against AVEFA in %” value in [3] was 80%. In experiment [4], the “Pre-emergence action against ALOMY in %” value amounted to 100%. For the same compound, in experiment [5], the “Pre-emergence action against VIOTR in %” value is given as 100%. The “Post-emergence action against ECHCG in %” value in [6] was 90%. Moreover, the “Pre-emergence action against DIGSA in %” value in experiment [7] was 100%. The “Post-emergence action against LOLRI in %” value in [8] is given as 90%. Further, the “Pre-emergence action against MATIN in %” value in experiment [9] is reported as 80%. Also, in experiment [10], the “Pre-emergence action against SETVI in %” value came to 100%. In addition, in experiment [11], the “Pre-emergence herbicidal action against LOLRI in %” value came out at 100%. Moreover, in [12], the “Post-emergence action against ALOMY in %” value came out at 100%. In addition, in experiment [13], the “Pre-emergence action against AVEFA in %” value is listed as 90%. In addition, the “Post-emergence action against DIGSA in %” value in experiment [14] is 90%. In addition, the “Pre-emergence action against VERPE in %” value in experiment [16] was found to be 90%. The “Pre-emergence action against AMARE in %” value in [15] stood at 100%.

Values taken from patent publication US20220386606A1, “SPECIFICALLY SUBSTITUTED 3-PHENYL-5-SPIROCYCLOPENTYL-3-PYRROLIN-2-ONES AND THEIR USE AS HERBICIDES” (Bayer Aktiengesellschaft, priority 2019, published 2022).
